Test results reported in US20190183114A1, “METHODS AND COMPOSITIONS FOR THE PRESERVATIONOF ORGANS” (INSERM (Institut National de la Sante et de la Recherche …, priority 2016, published 2019).
Entries after “also recorded” stand apart in the source; their conditions may differ.

Columns and labels:
Format in all cases: cell-based, human
HAEC = assay: XTT viability assay on HAEC subjected to 24 h of cold ischemia followed by 6 h of reperfusion; details: for cell viability / survival after ischemia reperfusion (XTT): 24 h ischemia + 6 h reperfusion, treated during hypoxia from start (AEBSF 300 μM, Salubrinal 75 μM, STF083010 10 μM, 4μ8c 10 μM); for protection against cell death, treatment delayed by 6 h after start of cold ischemia: treatment only at 6 h; for protection against cell death, treatment delayed by 6 h after start of cold ischemia / protection against cell death, treatment delayed by 12 h after start of cold ischemia: data not shown; for protection against cell death, treatment delayed by 12 h after start of cold ischemia: treatment after 12 h
Procedure: Primary human aortic endothelial cells (HAEC) were obtained from Gibco (Lot No: #765093 and Lot No: #999999) and cultured on 1% gelatin (Sigma) coated flasks of 75 cm^2 in M200 medium supplemented with LSGS (Gibco), 8% fetal bovine serum (FBS), and 100 μg/mL penicillin and streptomycin in a humidified atmosphere at 21% O2, 5% CO2 and 37° C. The cells were split at a ratio of 1:4 every 5 days. Cells up to passage 5 were used in this study. All cell culture media, serum, and supplements were purchased from Invitrogen. STF083010 (10 μM) and 4μ8c (10 μM) were purchased from Axon MedChem. Salubrinal (75 μM) was from R&D. Tunicamycin ([…]), sodium 4-phenylbutyrate (1 mM), and 4-(2-Aminoethyl)benzenesulfonyl fluoride (AEBSF, 300 μM) were from Sigma. All chemicals were dissolved in DMSO (Sigma). IRE1α^−/− and IRE1α^+/+—which are IRE1α^−/− cells rescued by a retrovirus encoding a Flag-tagged human IRE1α—murine embryonic cells (MEC) were produced as previously described (Volmer R, Ploeg K van der, Ron D. Membrane lipid saturation activates endoplasmic reticulum unfolded protein response transducers through their transmembrane domains. Proc. Natl. Acad. Sci. 2013; 201217611). MEC were cultured in DMEM high-glucose media (Gibco) supplemented with 10% FBS, non-essential amino acids (Gibco), penicillin and streptomycin (Gibco), L-glutamine (Gibco), and puromycin (3 μg/mL).
(§1) HAEC were washed with PBS before being incubated in cold University of Wisconsin (UW) preservation solution in a chamber with hypothermic (4° C.) hypoxic atmosphere obtained by flushing the chamber atmosphere with Bactal 2 (0% O2, 95% N2 and 5% CO2) until the reach of 0% 02 in the chamber atmosphere. The oxygen level was controlled with the oximeter Oxy-4 micro from PreSens Precision Sensing GmbH with channels present in the outside atmosphere, the chamber atmosphere, and the cell supernatant. To perform the normothermic reoxygenation, cells were washed with PBS and then incubated with M200 supplemented with 2% FBS in a humidified atmosphere at 21% O2, 5% CO2 and 37° C. The durations of both hypoxia and reoxygenation are indicated in figure legends and in the manuscript.
Reverse transfection were performed using ON-TARGETplus SMART pool siRNAs targeting IRE1α (#L-004951-02-0005), XBP1 (#L-009552-00-0005), PERK (#L-004883-00-0005), ATF4 (#L-005125-00-0005), ATF6 (#L-009917-00-0005), or ON-TARGETplus Non-targeting Pool control siRNAs (#D-001810-10-05). They were purchased from Dharmacon and used at a final concentration of 20 nM. The transfection was performed using Lipofectamine RNAiMAX and Opti-MEM reduced serum medium according to the manufacturer's instructions (Invitrogen). After 6 hours of transfection, the cell medium was replaced with fresh cell culture medium containing 10% of FBS, LSGS but no antibiotics and no antimycotics. After 24 hours of transfection, cells were subjected to hypoxia-reoxygenation experiments. For cells in 96- and 24-wells plates, cell viability was analyzed according to protocol provided (XTT cell proliferation kit II, Roche Diagnostics) while cells in 6-wells were subjected to RT-qPCR analysis to detect knockdown efficiency.

ATF4 = ATF4 production in EC subjected to 6 h of ischemia; details: data not shown
Procedure: as §1
(§2) HAEC were washed in cold PBS and resuspended in complete lysis buffer (Roche Diagnostics, #04719956001) before being sonicated at output power of 2 for 3 seconds (Branson Sonifier 450). The protein concentration of cell lysate supernatants was measured by BCA protein assay (Bio-Rad, #23225). […] The bound primary antibodies were detected with ChemiDoc™ MP imager (Bio-Rad) by the use of HRP-conjugated secondary antibody and the ECL detection system (Amersham Biosciences). […]

ATF6 [1] = assay: RT-qPCR of ATF6 downstream targets HerpUD and GRP78 in tunicamycin-treated HAEC; details: 6 h tunicamycin
Procedure: (§3) Primary human aortic endothelial cells (HAEC) were obtained from Gibco (Lot No: #765093 and Lot No: #999999) and cultured on 1% gelatin (Sigma) coated flasks of 75 cm^2 in M200 medium supplemented with LSGS (Gibco), 8% fetal bovine serum (FBS), and 100 μg/mL penicillin and streptomycin in a humidified atmosphere at 21% O2, 5% CO2 and 37° C. The cells were split at a ratio of 1:4 every 5 days. Cells up to passage 5 were used in this study. All cell culture media, serum, and supplements were purchased from Invitrogen. STF083010 (10 μM) and 4μ8c (10 μM) were purchased from Axon MedChem. […]
(§4) RNA was extracted from HAEC using the NucleoSpin RNA kit (Macherey-Nagel) containing a DNase treatment to remove potentially contaminating genomic DNA. […] A quantity of 1 μg of total RNA was reverse-transcribed with High Capacity cDNA Reverse Transcription kit (ABsystems). RT-qPCR was performed in triplicate with negative template controls, negative enzyme controls and the use of a calibrator to limit inter-run variations as recommended by the MIQE guidelines (Bustin S A, Benes V, Garson J A, Hellemans J, Huggett J, Kubista M, et al. The MIQE Guidelines: Minimum Information for Publication of Quantitative Real-Time PCR Experiments. Clin. Chem. 2009; 55:611-22). […]

CHOP [2] = assay: RT-qPCR of CHOP mRNA in tunicamycin-treated HAEC; details: 6 h tunicamycin, hydrochloride
Procedure: as §3, §4

CHOP [3] = assay: RT-qPCR of CHOP mRNA in HAEC subjected to 24 h of ischemia
Procedure: as §1, with “The durations of both hypoxia and reoxygenation are indicated in figure legends and in the manuscript.” left out
as §4

IRE1α's RNase activity [4] = assay: XBP1s and Erdj4 expression in tunicamycin-stimulated cells; details: data not shown
Procedure: as §3, §4

IRE1α's RNase activity [5] = assay: XBP1 mRNA splicing in cells subjected to 6 h ischemia; details: data not shown
Procedure: as §1
We followed the method used in (Fougeray S, Bouvier N, Beaune P, Legendre C, Anglicheau D, Thervet E, et al. Metabolic stress promotes renal tubular inflammation by triggering the unfolded protein response. Cell Death Dis. 2011; 2:e143). The XBP1 cDNA encompassing the region of restriction site was amplified by PCR. […] The spliced isoform of XBP1 mRNA was resistant to Pst1 and was detected as a 448-bp amplification product whereas the unspliced isoform, containing Pst1 restriction site, was detected by the presence of two amplification products of 291-bp and 183-bp (FIG. 8A, right).

ATF6 [6] = assay: Western blot analysis of ATF6 at different times of ischemia; details: data not shown
Procedure: as §1, §2

SMILES: O=C(C=Cc1ccccc1)NC(NC(=S)Nc1cccc2cccnc12)C(Cl)(Cl)Cl (stereo not shown) [Salubrinal, 3-phenyl-N-[2,2,2-trichloro-1-[[(8-quinolinylamino)thioxomethyl]amino]ethyl]-2-propenamide]
- cell viability / survival after ischemia reperfusion (XTT) (HAEC): improves viability; also recorded: significantly increased EC survival
- cell viability / survival after ischemia reperfusion (XTT) (HAEC; listed as Salubinal): significantly protected cells against death
- protection against cell death, treatment delayed by 6 h after start of cold ischemia (HAEC): lost
- ATF4 production (ATF4): effectively increased

SMILES: Cl.NCCc1ccc(S(=O)(=O)F)cc1 [AEBSF, 4-(2-Aminoethyl) benzenesulfonyl fluoride hydrochloride]
- cell viability / survival after ischemia reperfusion (XTT) (HAEC; hydrochloride): improves viability; also recorded: protected endothelial cells against cold ischemia-induced death; also recorded: correctly protected EC against death
- protection against cell death, treatment delayed by 12 h after start of cold ischemia (HAEC): protective effect was significantly lost
- protection against cell death, treatment delayed by 6 h after start of cold ischemia (HAEC): trend towards decreased protection
- GRP78 mRNA expression (ATF6 [1]): decreased
- HerpUD mRNA expression (ATF6 [1]): decreased
- CHOP mRNA expression (CHOP [2]): decreases CHOP expression; also recorded: lower CHOP mRNA expression

SMILES: O=S(=O)(N=Cc1c(O)ccc2ccccc12)c1cccs1 [STF083010, N-[(2-Hydroxy-1-naphthalenyl)methylene]-2-thiophenesulfonamide]
- cell viability / survival after ischemia reperfusion (XTT) (HAEC): improves viability; also recorded: increased EC survival
- cell viability / survival after ischemia reperfusion (XTT) (HAEC; listed as STF): significantly increased EC survival
- protection against cell death, treatment delayed by 12 h after start of cold ischemia (HAEC): did not alter the protection
- protection against cell death, treatment delayed by 6 h after start of cold ischemia (HAEC): did not alter the protection
- CHOP mRNA expression (CHOP [3]): decreased CHOP mRNA expression
- CHOP mRNA expression (CHOP [3]; listed as STF): significantly decreased CHOP expression to control levels
- Erdj4 expression (IRE1α's RNase activity [4]): abrogated
- XBP1s expression (IRE1α's RNase activity [4]): abrogated
- XBP1 mRNA splicing (IRE1α's RNase activity [5]): inhibited splicing
- ATF6 expression (Western blot) (ATF6 [6]; after 12 h of ischemia): trend towards increased ATF6 expression
- ATF6 expression (Western blot) (ATF6 [6]; at 24 h of ischemia): no significant differences

SMILES: Cc1cc(=O)oc2c(C=O)c(O)ccc12 [4μ8c]
- cell viability / survival after ischemia reperfusion (XTT) (HAEC): increased EC survival
